# Patent US20260217656A1, “Compounds Affecting KRAS” (UNIVERSITAT DE BARCELONA, priority 2022, published 2026)
# “Also recorded” adds a separate entry of the source.
# Experiments:
# [1] = tested on: Ras effectors ERK and AKT in DLD-1 cells; experiment: Western blot of downstream RAS signaling (P-ERK, P-AKT, P-MEK) in serum-starved DLD-1 cells; type: cell-based, human; details: 100 μM; for activation of AKT and ERK / relative capacity to activate Ras effectors ERK and AKT among the compounds: DLD-1 serum-starved cells, 3 hours
# Text: DLD-1 (KRASWT/G13D) (clone V15, #HD PAR-086) colorectal adenocarcinoma cell line and DLD-1 knockout of mutant KRAS allele, DLD-1 KO (KRASWT/−) (clone DWT7, #HD105-002), were obtained from Horizon Discovery Ltd. (Cambridge, UK). hTERT-RPE (KRASWT/WT) immortalized retinal pigment epithelial human cell line was obtained from the […] (ATCC). DLD-1 KO cells stably expressing HA-KRAS G12V were previously generated in our laboratory (Cabot et al., 2021). All cells were grown in DMEM-HAM s F12 (1:1) supplemented with 10% foetal bovine serum (Biological Industries, Israel), penicillin, streptomycin, and nonessential amino acids. Cells were tested once per month for mycoplasma contamination.
# Cells were seeded in a media containing 10% FBS for 24 hours and then they were serum starved (0.1% FBS) for the next 24 hours. Afterwards, they were incubated with the different compounds during the times specified in each figure. When indicated, also in order to activate downstream KRAS cell signalling, treatment for 10 minutes with EGF (50 ng/mL) (Sigma-Aldrich) was performed.
# Proteins were resolved by SDS-PAGE, transferred onto PVDF membranes (Immobilon-P, Millipore) and Western blot was performed as previously described (Cabot et al, Oncogene 2021). The following primary antibodies were used: anti-c-RAF (BD Transduction 610151, 1:500); anti-phospho-c-RAF S338 (Cell Signaling 9427, 1:500); anti-AKT (Cell Signaling 9272, 1:1000); anti-phospho-AKT T308 (Cell Signaling 4056, 1:1000); anti-phospho-MEK1/2 S221 (Cell Signalling […]); anti-p44/42 MAPK (ERK1/2) (Cell Signaling 9102, 1:2000); anti-phospho-p44/42 MAPK(ERK1/2) T202/Y204 (Cell Signaling 4370, 1:2000); anti-HA (Sigma-Aldrich H6908, 1:1000); anti-cleaved-caspase-3 (Asp175) (Cell Signaling 9661, 1:1000); HRP-coupled secondary antibodies used: goat anti-rabbit (BioRad 170-6515, 1:3000) or goat anti-mouse (BioRad 170 6516, 1:3000).
# For analysis of RAS signalling, cells were lysed in a buffer containing 67 mM Tris-HCl pH 6.8 and 2% SDS and then the samples were heated at 97° C. for 15 minutes. Protein concentration of the lysates was assessed using the Lowry method. An aliquot of […] of protein per sample was loaded onto the gels.
# We first analyzed the effect of P14 on the activation of downstream RAS signaling pathways (RAF/MEK/ERK and PI3K/AKT) in DLD-1 cells (CRC cells carrying one oncogenic KRAS allele). To this end, DLD-1 serum-starved cells (0.1% FCS) were treated with P14 (100 μM) at different times, and activation of AKT and ERK was evaluated by Western blot. […] As a 3-hour treatment was associated with major effects, we chose this duration for the subsequent experiments with the other compounds. Next, DLD-1 serum-starved cells were treated with P14A-P14C at 100 μM for 3 hours and activation of AKT and ERK was assessed as above. […] The kinetics of RAS downstream signaling was analyzed in P14B-treated cells compared to 10% FBS serum.
# Panc-1 cells = experiment: Cell Titre Glo viability assay, Panc-1; type: cell-based; details: Panc-1 cells (KRAS mutant G12D), after five days of treatment
# Method: In the next study, compounds were tested against cancer cells: pancreatic cancer cells (Panc-1), ovarian cancer cells (SW626) and uterine sarcoma cells (Mes-sa). The data generated using Cell Titre Glo® assays under standard conditions where the cells are grown in 384 well plates, then placed under continuous pressure of treatment for the relevant time period before being halted and assayed. The data collected is then plotted for analysis.
# FIG. […]
IC50 (Panc-1 cells),SMILES,activation of AKT and ERK [1],relative capacity to activate Ras effectors ERK and AKT among the compounds [1],"P-ERK and P-AKT levels, time course ([1]; DLD-1 serum-starved cells (0.1% FCS), 3 and 6 hours)",response among the molecules tested (Panc-1 cells)
,Cc1n[nH]c(O)c1C(c1ccc(F)cc1)c1c(C)n[nH]c1O [Example P14A],increase AKT and/or ERK signalling,highest activation of both Ras effectors,,
,Cc1n[nH]c(O)c1C(c1ccc2c(c1)OCO2)c1c(C)n[nH]c1O [Example P14C],activated AKT and ERK kinases; also recorded: increase AKT and/or ERK signalling,,,
,Cc1n[nH]c(O)c1C(c1ccccc1OCc1ccc(Cl)cc1)c1c(C)n[nH]c1O [Example P14],activated AKT and ERK kinases; also recorded: increase AKT and/or ERK signalling,most efficient,significantly increased P-ERK and P-AKT,
< 20 µM,COc1ccc(C(c2c(C)n[nH]c2O)c2c(C)n[nH]c2O)cc1OCCc1ccc(Cl)cc1 [P14(J)SD],,,,best response
